We go through five compounds from ChEMBL document CHEMBL1124125, “6-(Alkylamino)-3-aryl-1,2,4-triazolo[3,4-a]phthalazines. A new class of benzodiazepine receptor ligands” (J Med Chem, 1988).

pKi: −log10 of the molar value. Where only a bound is given, the exact number is not on record here.

In series [1] the test system is Mus musculus. Kind of series: Anticonvulsant activity when bicuculline given subcutaneously in mouse. In kind it is functional. The settings on record: sc.
The subject of series [2] is Rattus norvegicus. Put plainly: Activity was measured by rotarod test by peroral administration in rat. The class given is functional. The note with it: po. (In general: Falling from the rotarod earlier than controls is read as motor impairment.)
The species named for series [3] is Mus musculus. Put plainly: Anticonvulsant activity when maximal electroshock is induced in mouse. In kind it is functional. Background: Protection in the maximal electroshock model is a classic sign of anticonvulsant action.
The test system of series [4] is Mus musculus. Put plainly: (§1) Anticonvulsant activity when lethal dose of strychnine given subcutaneously in mouse. In kind it is ADME, organism-based. The settings on record: in vivo, sc.
The subject of series [5] is Mus musculus. Kind of series: Activity was measured by rotarod test by intraperitoneal administration in mouse. The class given is functional. The note with it: ip.
Series [6] deals with GABA-A receptor; anion channel (Rattus norvegicus) (UniProt O09028+P15431+P18506+P18508+P19969+P20236+P23574+P23576+P28471+P28473+P30191+P62813+P63079+P63138+Q91ZM7+Q9ES14). Kind of series: GABA ratio (IC50/IC50 in the presence of 10e-4 GABA). The class given is protein-complex assay.
The subject of series [7] is Rattus norvegicus. Put plainly: Minimal effective dose on rat for motor coordination after intraperitoneal administration. The note with it: ip, read-out: MED. In kind it is functional.
In series [8] the target is GABA-A receptor; anion channel. Kind of series: Inhibition of [3H]diazepam binding to GABA-A central benzodiazepine receptor of rat brain homogenate.
Series [9] concerns Mus musculus. Put plainly: Minimal effective dose on mouse for body tone after intraperitoneal administration. In kind it is functional. The settings on record: ip, read-out: MED.
Series [10] relates to Rattus norvegicus. Kind of series: Effective dose on rat for body tone after intraperitoneal administration. In kind it is functional.
For series [11], the system named is Rattus norvegicus. Kind of series: Conditioned Avoidance response activity (CR2) at 10 mg/kg (i.p.) (No. of rats with blocked response/No. of treated rats). In kind it is functional. The settings on record: route intraperitoneal.
Series [12] deals with Mus musculus. Kind of series: Effective dose on mouse for body tone after intraperitoneal administration. In kind it is functional.
In series [13] the test system is Rattus norvegicus. Put plainly: Minimal effective dose on rat for body tone after intraperitoneal administration. In kind it is functional. The note with it: ip, read-out: MED.
Series [14] deals with Rattus norvegicus. Put plainly: Minimal effective dose (MED, ip) that significantly increased the number of shocks (anticonflict). In kind it is functional. The settings on record: read-out: MED.
Series [15] has as its system Mus musculus. Kind of series: Minimal effective dose on mouse for mortality after intraperitoneal administration.(1/3 animals died). The settings on record: ip, read-out: MED. The class given is functional.
For series [16], the species on record is Mus musculus. Kind of series: Anticonvulsant activity of the compound when maximal electroshock is induced in mouse. The class given is functional.
Series [17] deals with Mus musculus. Put plainly: Anticonvulsant activity of the compound when bicuculline given subcutaneously in mouse. The class given is functional. The settings on record: sc.
Series [18] is described as follows: Lethal dose when given intraperitoneally in mice. The note with it: mouse, in vivo, ip. In kind it is toxicity, organism-based.
Series [19] concerns Rattus norvegicus. Put plainly: Effective dose on rat for motility after intraperitoneal administration. In kind it is functional.
Series [20] concerns Mus musculus. Put plainly: Effective dose on mouse for motility after intraperitoneal administration. The class given is functional.
The test system of series [21] is Rattus norvegicus. Kind of series: Conditioned Avoidance response activity (CR2) at 20 mg/kg (i.p.) (No. of rats with blocked response/No. of treated rats). In kind it is functional. The settings on record: route intraperitoneal.
In series [22] the test system is Mus musculus. Kind of series: Effective dose on mouse for motor coordination after intraperitoneal administration. The class given is functional.
For series [23], the system named is Rattus norvegicus. Kind of series: Minimal effective dose on rat for motility after intraperitoneal administration. In kind it is functional. The note with it: ip, read-out: MED.
The test system of series [24] is Mus musculus. Kind of series: (§2) Anticonvulsant activity of the compound when lethal dose of strychnine given subcutaneously in mouse. The class given is functional. The note with it: sc.
The test system of series [25] is Rattus norvegicus. Kind of series: Effective dose on rat for motor coordination after intraperitoneal administration. The class given is functional.
Series [26] concerns Mus musculus. Put plainly: Minimal effective dose on mouse for motility after intraperitoneal administration. In kind it is functional. The note with it: ip, read-out: MED.
Series [27] concerns Mus musculus. Put plainly: Minimal effective dose on mouse for motor coordination after intraperitoneal administration. The class given is functional. The settings on record: ip, read-out: MED.
In series [28] the test system is Rattus norvegicus. Kind of series: Minimal effective dose on rat for mortality after intraperitoneal administration. (1/3 animals died). In kind it is functional. The note with it: ip, read-out: MED.
The test system of series [29] is Mus musculus. Kind of series: Dose that prevented tonic extensor seizures and death in 50% of the mice.(ip). The class given is functional.
In series [30] the test system is Rattus norvegicus. Kind of series: Minimal effective dose (MED) that significantly increased the number of shocks.(ip). The note with it: read-out: MED.
Series [31] relates to Mus musculus. Kind of series: Antagonism of Diazepam muscle relaxant effect by compound (3 mg/kg, ip) was measured by the fallen/treated mice. In kind it is functional.
For series [32], the system named is Mus musculus. The description is as §1. The note with it: sc.
Series [33] concerns Mus musculus. The series is described as §2. In kind it is ADME, organism-based. The settings on record: in vivo, sc.
The subject of series [34] is Mus musculus. Kind of series: Antagonism of Diazepam muscle relaxant effect by compound (60 mg/kg, ip) was measured as the ratio of fallen/treated mice. In kind it is functional.

As for `CNC1=Nc2ccc(Cl)cc2C(c2ccccc2)=[N+]([O-])C1` [CHLORDIAZEPOXIDE], the 50% effective dose (ED50) in [1] came to 4.7 mg/kg; in [2], 68.4 mg/kg; in series [3], 23 mg/kg; in [4], 7.5 mg/kg; in series [5], 11 mg/kg.
Take `COCCN(CCOC)c1nn2c(-c3ccc(OC)cc3)nnc2c2ccccc12`: the median effective dose (ED50) in series [2] came to 300 mg/kg; in series [16], 50 mg/kg; in series [17], 4 mg/kg; in series [24] it was 50 mg/kg; in [5], 60 mg/kg; in series [29] it was 6.2 mg/kg. Further, the Ratio in [6] worked out at 1.83. The minimal effective dose was 100 mg/kg in series [7]; 6 mg/kg in series [9]; 300 mg/kg in series [13]; 3.5 mg/kg in series [14]; 300 mg/kg in series [15]; 300 mg/kg in series [23]. In addition, the minimal effective dose in [26] worked out at 10 mg/kg; in series [27], 6 mg/kg; in series [28] it was 1000 mg/kg. In [8], this compound had a pKi of 8.59. Also, the ED in [10] was found to be 600 mg/kg; in [12], 100 mg/kg; in series [19], 1000 mg/kg; in series [20], 60 mg/kg; in series [22] it was 60 mg/kg; in series [25] it was 600 mg/kg. Besides, the CR2 worked out at 4 block/treat in series [11] and 10 block/treat in [21]. In addition, the 50% lethal dose (LD50) in series [18] is 300 mg/kg.
Turning to `CN1C(=O)CN=C(c2ccccc2)c2cc(Cl)ccc21` [DIAZEPAM], the median effective dose (ED50) was found to be 1.4 mg/kg in [1]; 15 mg/kg in series [2]; 14.2 mg/kg in series [3]; 3 mg/kg in series [32]; 1 mg/kg in series [5]. For the same compound, the minimal effective dose came to 3 mg/kg in series [30] and 0.25 mg/kg in series [14]. For the same compound, the CR2 in series [11] is given as 5 block/treat. This compound came in with a Fallen/treated in series [31] of 8.
Turning to `Cc1nnc2ccc(-c3cccc(C(F)(F)F)c3)nn12` [CI-218872], the results for the ED50 in series [16], in series [33] and in series [5] were 30 mg/kg, 30 mg/kg and 10 mg/kg, respectively.
In the case of `COc1ccc(-c2nnc3c4ccccc4c(N4CCCC4)nn23)cc1`, the Ratio in series [6] came out at 1.1. Also, the pKi in [8] is 8.41. Also, the LD50 in series [18] came out at 600 mg/kg. Moreover, the Fallen/treated in series [34] stood at 5. In series [29], this compound came in with an ED50 of more than 100 mg/kg.

The term ED50 denotes the dose at which the effect has come halfway, by size or by number of responders. The low end stands for greater potency, the high end for weaker potency. What is called pKi is −log10 of the Ki, conventionally taken in molar units. As usually defined, the LD50 is the dose expected to kill half of the subjects tested.
